# Test results taken from article PMC11477209, “Toxicological Evaluation of Kaempferol and Linearolactone as Treatments for Amoebic Liver Abscess Development in Mesocricetus auratus” (International Journal of Molecular Sciences, 2024).
# Read-outs that look alike come from different tables or passages of the source.
# Columns and labels:
# [1] = in vivo
# Experimental: After blood samples were obtained, the hamsters were sacrificed with a lethal dose of sodium pentobarbital, followed by a cervical fracture. They were mounted on a dissecting board for the necropsy. A complete mid-laparotomy was performed to remove the lungs, spleen, heart, liver, and kidneys. An excisional biopsy was performed to recover the ALA lesions for morphometric analysis. The organs and ALA lesions were rinsed with 1× PBS, weighed, and adherent tissue was removed. […] Later, the inclusion protocol was performed to obtain histological sections (3 μm thick) with a rotatory microtome (RM2125-RTS, Leica; Wetzlar, Germany). Tissue slices were stained with hematoxylin-eosin (Merck; Rahway, NJ, USA), mounted on coverslips with Entellan^TM-New (Merck; Rahway, NJ, USA), and observed with optical microscopy (Eclipse 80i, Nikon; Tokio, Japan).
# [2] = system: E. histolytica trophozoites (amoebic liver abscess); assay: Amoebic liver abscess (ALA) model, antiparasitic protocol; assay type: in vivo, Mesocricetus auratus; details: for Edges / Leukocyte infiltrate / Liquid / Morphology: ALA characteristics; for ALA Volume: MRI; for ALA Volume / ALA Weight: i.p. 4 days; for ALA Weight: KP 5, LL 10, MTZ 10 mg/kg/day
# Excerpt: M. auratus was used as an animal model because the hamster is naturally susceptible to infection by E. histolytica and can develop amoebic colitis or extraintestinal complications such as an ALA [71]. In this context, the hamster can be used to search for new alternative therapeutic agents against amoebiasis. The hamsters were acquired from Charles River Laboratories Inc. (Wilmington, MA, USA) in 2017 by Centro de Investigación y de Estudios Avanzados del Instituto Politécnico Nacional ([…]-IPN). […] Male hamsters (sexually mature and homozygous) weighing 95 ± 5 g and ≈10 weeks old were selected for the experiments. They were maintained in aseptic conditions at 25 ± 1 °C, 50 ± 3% humidity, a 12 h photoperiod, and ad libitum access to a standard diet (LabDiet; Richmond, IN, USA) and water (Figure 5A). The hamsters were housed in polycarbonate boxes (five per box), with an American Iron and Steel Institute (AISI) lid and wood shavings as bedding, in a controlled room of the Animal Production and Experimentation Unit (UPEAL) from […]-IPN (Figure 5A). Additionally, the health state of the hamsters and their adaptation to the new laboratory conditions were evaluated for 15 days to decrease their stress and anxiety levels. This study was carried out according to the Official Mexican Regulations (NOM-062-ZOO-1999) and NC3Rs ARRIVE [60, 72]. The protocol was approved by the Institutional Animal Care and Use Committee (Reg. No. 0183-16). Finally, the hamsters were not subjected to any previous experimental procedure or any additional treatment before beginning the experimental procedures (see File S1, NC3Rs ARRIVE Guidelines Checklist). Compounds that are prohibited and/or not recommended for use in animals by the American Veterinary Medical Association (Guidelines for the Euthanasia of Animals) were not used.
# These experiments were performed with three independent biological replicates. For each replicate, twenty-five hamsters were randomly distributed (simple type) into five experimental groups (five animals per group). The sample size was determined based on the Organization for Economic Cooperation and Development (OECD) recommendations that establish the minimum number of individuals required for the tests so as not to sacrifice animals unnecessarily. Laparotomy was performed in aseptic conditions by using depilation, iodine solution, as well as sterile field cloths. Subsequently, an intra-hepatic puncture was made to deliver 1.5 × 10^6 virulent E. histolytica trophozoites in 100 μL of 1× PBS into the left hepatic lobe for ALA induction (Figure 5A-3). The injection site was immediately covered by applying a gel foam pad to maintain hemostasis. The abdominal layers were sutured discontinuously by single vertical stitches using Vicryl synthetic absorbable suture with a triangular pointed half circle needle. Irregular edges or folds in the surgical wound were eliminated to avoid tissue devitalization or possible infections. The development of a hepatic ALA was monitored for 4 days (Figure 5A-4).
# (Figure 5B). The compounds were administered by the i.p. route because the peritoneal cavity presents rapid fluid absorption into the bloodstream, and initial biotransformation by the gastrointestinal tract is avoided. […] The hamsters were evaluated 24 h post-treatment to detect any signs of discomfort/pain or toxicity. The humane endpoint criteria used in this study were >20% body weight loss overnight, cachexia, recumbence, lethargy, respiratory distress, inability to reach food and water, lack of grooming, and ulceration around the surgical site, among others. Additionally, the weight of hamsters was determined at the beginning and end of the experiment with an electronic bascule (CS200, Ohaus; Parsippany, NJ, USA), and the ALA volume was calculated based on imaging (Figure 5B-1). […]
# CHO-K1 cells = assay: MTT cytotoxicity assay; assay type: cell-based, Chinese hamster; details: for IC50: Cricetulus griseus, read-out: IC50 CHO-K1
# [3] = Paraclinical analysis (serum biochemistry, hematic biometry) in ALA hamsters; assay type: in vivo, Mesocricetus auratus
# Experimental: Serum was obtained by centrifugation at 3500 rpm and frozen at −70 °C until analysis. Hematic biometry was performed in a hematology autoanalyzer system (BC-2300, Mindray; Shenzhen, China), and biochemical parameters were made on an automatic medical system (Prestige 24i, Tokyo Boeki; Kanagawa, Japan).
# [4] = system: E. histolytica trophozoites (virulent HM-1 strain); assay: microbe, parasite or virus in culture; details: Entamoeba histolytica, 48 h, read-out: IC50 HM-1, 48 h, flow cytometry
# [5] = system: E. histolytica trophozoites; details: 48 h; ref [10]; read-out: IC50 E. histolytica trophozoites; cited from earlier work
# BEAS-2B cells = assay: MTT cytotoxicity assay; assay type: cell-based, human; details: 24 h; for IC50: Homo sapiens, BEAS-2B
# [6] = system: E. histolytica trophozoites (virulent HM-1 strain)
# [7] = system: E. histolytica trophozoites; assay: Cell morphology by confocal microscopy (actin); assay type: cell-based, Entamoeba histolytica; details: phalloidin-rhodamine, treatment with IC50
# Experimental: Then, the culture medium was removed, and the adhered cells were fixed with 4% paraformaldehyde for 1 h at 37 °C. The samples were washed three times with 1× PBS and incubated with 1:50 phalloidin–rhodamine (R415, Invitrogen; Carlsbad, CA, USA) for 1 h at 37 °C. Finally, the cells were washed, mounted with VectaShield/DAPI medium (Vector Laboratories; Newark, CA, USA), and observed with a confocal microscope (LSM-700, Zeiss; Oberkochen, Germany).
# [8] = for Survival rate: ALA hamsters, i.p. 4 days; for Toxicity signs: in vivo, ip
# [9] = Chinese hamster (CHO-K1) and human (BEAS-2B)
# [10] = blood, ALA hamsters, i.p. 4 days
# [11] = 48 h, MTZ 0.16, KP 31.6, LL 15.6 μg/mL
compound,measurement,setting,value
O=c1c(O)c(-c2ccc(O)cc2)oc2cc(O)cc(O)c12 [KP],Heart largest diameter,[1],1.06 ± 0.08 cm
same,Heart weight,[1],0.38 ± 0.1 g
same,Kidneys largest diameter,[1],1.2 ± 0.1 cm
same,Kidneys weight,[1],0.49 ± 0.04 g
same,Liver largest diameter,[1],3.88 ± 0.11 cm
same,Liver weight,[1],5.9 ± 0.8 g
same,Lungs largest diameter,[1],2.5 ± 0.05 cm
same,Lungs weight,[1],0.74 ± 0.06 g
same,Spleen largest diameter,[1],3.7 ± 0.1 cm
same,Spleen weight,[1],0.36 ± 0.05 g
same,Edges,[2],Irregular and poorly defined
same,Leukocyte infiltrate,[2],+/−
same,Liquid,[2],+/−
same,Morphology,[2],Ovoid
same,ALA Volume,[2],738 ± 150 * mm^3
same,MRI T1 signal of ALA,[2],Intermediate intensity
same,MRI T2 signal of ALA,[2],hypointense
same,ALA Weight,[2],0.86 ± 0.15 g
same,biological activity symbol on IC50 CHO-K1,"CHO-K1 cells; 24 h, MTT",+/-
same,IC50,"CHO-K1 cells; CHO-K1, 24 h",70 µg/mL
same,Erythrocytes,[3]; [10],6.8 ± 0.3 x10 6/mm3
same,Band neutrophils,[3]; in vivo,2 ± 1%
same,Basophils,[3]; in vivo,0%
same,Eosinophils,[3]; in vivo,0%
same,Immature forms,[3]; in vivo,0%
same,Lymphocytes,[3]; in vivo,39 ± 12%
same,Monocytes,[3]; in vivo,0%
same,Segmented neutrophils,[3]; in vivo,60 ± 11%
same,ALT (GPT),"[3]; in vivo, ip",60 ± 10 U/L
same,Albumin,"[3]; in vivo, ip",1.7 ± 0.2 g/dL
same,Alkaline phosphatase,"[3]; in vivo, ip",349 ± 38 U/L
same,Cholesterol,"[3]; in vivo, ip",164 ± 43 mg/dL
same,Creatinine,"[3]; in vivo, ip",0.45 ± 0.1 mg/dL
same,Direct bilirubin,"[3]; in vivo, ip",0.37 ± 0.07 mg/dL
same,GGT,"[3]; in vivo, ip",9.3 ± 5.5 U/L
same,Glucose,"[3]; in vivo, ip",152 ± 11 mg/dL
same,Hematocrit,"[3]; in vivo, ip",48.8 ± 0.5%
same,Hemoglobin,"[3]; in vivo, ip",16.5 ± 0.2 g/dL
same,Indirect bilirubin,"[3]; in vivo, ip",0.01 ± 0.0 mg/dL
same,MCH,"[3]; in vivo, ip",24 ± 0.7 pg
same,MCHC,"[3]; in vivo, ip",33 ± 0.1 g/dL
same,MCV,"[3]; in vivo, ip",72 ± 2.3 fL
same,MPV,"[3]; in vivo, ip",7.25 ± 0.5 fL
same,PCT,"[3]; in vivo, ip",0.4 ± 0.2%
same,PDW,"[3]; in vivo, ip",9.15 ± 1.2 fL
same,Platelets,"[3]; in vivo, ip",537 ± 266 x106/μL
same,RDW-SD,"[3]; in vivo, ip",42.4 ± 0.3 fL
same,Total bilirubin,"[3]; in vivo, ip",0.38 ± 0.07 mg/dL
same,Total protein,"[3]; in vivo, ip",5.2 ± 0.2 g/dL
same,Triglycerides,"[3]; in vivo, ip",475 ± 28 mg/dL
same,Urea,"[3]; in vivo, ip",41.6 ± 4 mg/dL
same,leukocytes (mild leukocytosis),"[3]; in vivo, ip","14,800 ± 700 /mm^3"
same,IC50,[4],31.6 µg/mL
same,IC50,[5],27.7 µM
same,biological activity symbol on IC50 BEAS-2B,BEAS-2B cells,+/-
same,IC50,BEAS-2B cells,100 µg/mL
same,biological activity symbol on IC50 HM-1,[6]; 48 h,+
same,apoptotic trophozoites,[6]; [11],8.2%
same,necrotic trophozoites,[6]; [11],45.2%
same,decrease of size and granularity of the cell population,"[6]; 48 h, MTZ 0.16, KP 31.6, LL 15.6 μg/mL, vs Vh",55%
same,actin cytoskeleton alteration,[7],disorganized actin microfilaments
same,Survival rate,[8],100%
same,Toxicity signs,[8],None
"Cc1ncc([N+](=O)[O-])n1CCO [MTZ, metronidazole, reference compound]",Heart largest diameter,[1],1.08 ± 0.04 cm
same,Heart weight,[1],0.38 ± 0.1 g
same,Kidneys largest diameter,[1],1.3 ± 0.08 cm
same,Kidneys weight,[1],0.52 ± 0.0 g
same,Liver largest diameter,[1],4 ± 0.15 cm
same,Liver weight,[1],5.76 ± 1.4 g
same,Lungs largest diameter,[1],2.5 ± 0.2 cm
same,Lungs weight,[1],0.68 ± 0.05 g
same,Spleen largest diameter,[1],3.3 ± 0.3 cm
same,Spleen weight,[1],0.2 ± 0.05 g
same,Edges,[2],Regular and well defined
same,Leukocyte infiltrate,[2],−
same,Liquid,[2],−
same,Morphology,[2],Round
same,ALA Volume,[2],528 ± 183.5 * mm^3
same,MRI T1 signal of ALA,[2],Intermediate intensity
same,MRI T2 signal of ALA,[2],hypointense
same,ALA Weight,[2],0.33 ± 0.32 g
same,biological activity symbol on IC50 CHO-K1,"CHO-K1 cells; 24 h, MTT",-
same,IC50,"CHO-K1 cells; CHO-K1, 24 h, MTT",500 µg/mL
same,MPV,[3]; [10],8 ± 0.1 fL
same,TB/AL ratio,[3]; drug toxicity ratio,0.38 ± 0.16
same,neutrophil/lymphocyte ratio,[3]; hematic ratio,1.15 ± 0.7
same,Band neutrophils,[3]; in vivo,0%
same,Basophils,[3]; in vivo,0%
same,Eosinophils,[3]; in vivo,0%
same,Immature forms,[3]; in vivo,0%
same,Lymphocytes,[3]; in vivo,50 ± 13%
same,Monocytes,[3]; in vivo,0%
same,Segmented neutrophils,[3]; in vivo,51 ± 13%
same,ALT (GPT),"[3]; in vivo, ip",135 ± 23 U/L
same,AST (GOT),"[3]; in vivo, ip",81 ± 24 U/L
same,Albumin,"[3]; in vivo, ip",1.9 ± 0.3 g/dL
same,Alkaline phosphatase,"[3]; in vivo, ip",230 ± 11 U/L
same,Cholesterol,"[3]; in vivo, ip",116 ± 9.1 mg/dL
same,Creatinine,"[3]; in vivo, ip",1.01 ± 0.2 mg/dL
same,Direct bilirubin,"[3]; in vivo, ip",0.5 ± 0.1 mg/dL
same,Erythrocytes,"[3]; in vivo, ip",3.7 ± 0.2 x10 6/mm3
same,GGT,"[3]; in vivo, ip",5.5 ± 2.3 U/L
same,Glucose,"[3]; in vivo, ip",161 ± 21 mg/dL
same,Hematocrit,"[3]; in vivo, ip",35 ± 2.6%
same,Hemoglobin,"[3]; in vivo, ip",14. 7 ± 1.2 g/dL
same,Indirect bilirubin,"[3]; in vivo, ip",0.20 ± 0.1 mg/dL
same,Leukocytes,"[3]; in vivo, ip",7.7 ± 2.6 x100/mm3
same,MCH,"[3]; in vivo, ip",40 ± 1.6 pg
same,MCHC,"[3]; in vivo, ip",43 ± 1.4 g/dL
same,MCV,"[3]; in vivo, ip",94 ± 2.2 fL
same,PCT,"[3]; in vivo, ip",0.4 ± 0.1%
same,PDW,"[3]; in vivo, ip",11 ± 0.4 fL
same,Platelets,"[3]; in vivo, ip",536 ± 148 x106/μL
same,RDW-CV,"[3]; in vivo, ip",25.8 ± 3.3 fL
same,RDW-SD,"[3]; in vivo, ip",111 ± 12 fL
same,Total bilirubin,"[3]; in vivo, ip",0.7 ± 0.3 mg/dL
same,Total protein,"[3]; in vivo, ip",5.3 ± 0.9 g/dL
same,Triglycerides,"[3]; in vivo, ip",280 ± 75 mg/dL
same,Urea,"[3]; in vivo, ip",41.2 ± 1.4 mg/dL
same,BUN/CR ratio,[3]; kidney damage ratio,19.6 ± 3.8
same,urea/CR ratio,[3]; kidney damage ratio,42 ± 8.15
same,AST/ALT ratio (De Ritis ratio),[3]; liver injury ratio,< 1
same,LD50 (Theoretical),[9],1026 mg/kg
same,IC50,[4],0.16 µg/mL
same,biological activity symbol on IC50 BEAS-2B,BEAS-2B cells,-
same,IC50,BEAS-2B cells,400 µg/mL
same,apoptotic trophozoites,[6],2%
same,decrease of size and granularity of the cell population,[6],52%
same,necrotic trophozoites,[6],62.2%
same,biological activity symbol on IC50 HM-1,[6]; 48 h,++
same,Survival rate,[8],100%
same,Toxicity signs,[8],None
